Test results taken from PubChem BioAssay AID270 (DTP/NCI, 2004).
Several values for one entry are separate records, joined by “and”; a condition that tells them apart may be missing. Equal values may be shown once. Results filed as inconclusive are left out.

Tested on: BDF1 mice, s.c. Lewis lung carcinoma, T/C %
Assay: NCI In Vivo Anticancer Drug Screen. Data for tumor model Lewis Lung Carcinoma (subcutaneous) in B6D2F1 (BDF1) mice
Method in brief: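 The value reflects a ratio in which the treated cohort's survival time or tumour size is compared against mice receiving only vehicle.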

O=C1CCC(=O)N1Br
T/C (endpoint: mean tumor weight, dose: 50.0 mg/kg/injection, schedule: Q01DX011 (ip), vehicle: other, higher = larger tumour): 99 % of control
T/C (endpoint: mean tumor weight, dose: 75.0 mg/kg/injection, schedule: Q01DX011 (ip), vehicle: other, higher = larger tumour): 59 % of control and 75 % of control
T/C (endpoint: mean tumor weight, dose: 150.0 mg/kg/injection, schedule: Q01DX011 (ip), vehicle: other, higher = larger tumour): 76 % of control
T/C (endpoint: mean tumor weight, dose: 300.0 mg/kg/injection, schedule: Q01DX011 (ip), vehicle: other, higher = larger tumour): 115 % of control

CN1c2c(nc(N)[nH]c2=O)NCC1CCNc1ccc(C(=O)NC(CCC(=O)O)C(=O)O)cc1 (configuration not stated)
T/C (endpoint: median survival time, dose: 268.0 mg/kg/injection, schedule: Q01DX009 (ip), vehicle: saline, higher = longer survival): 120 % of control
T/C (endpoint: median survival time, dose: 400.0 mg/kg/injection, schedule: Q01DX009 (ip), vehicle: saline, higher = longer survival): 116 % of control
T/C (endpoint: median survival time, dose: 400.0 mg/kg/injection, schedule: Q04DX003 (ip), vehicle: saline, higher = longer survival): 103 % of control
T/C (endpoint: median survival time, dose: 600.0 mg/kg/injection, schedule: Q04DX003 (ip), vehicle: saline, higher = longer survival): 116 % of control
T/C (endpoint: median survival time, dose: 800.0 mg/kg/injection, schedule: Q01DX001 (ip), vehicle: saline, higher = longer survival): 98 % of control
T/C (endpoint: median survival time, dose: 900.0 mg/kg/injection, schedule: Q04DX003 (ip), vehicle: saline, higher = longer survival): 106 % of control
T/C (endpoint: median survival time, dose: 1200.0 mg/kg/injection, schedule: Q01DX001 (ip), vehicle: saline, higher = longer survival): 103 % of control
T/C (endpoint: median survival time, dose: 1800.0 mg/kg/injection, schedule: Q01DX001 (ip), vehicle: saline, higher = longer survival): 110 % of control

CCOC(=O)C1C(=O)C(CN(CCCl)CCCl)C(=O)C(C(=O)OCC)C1c1ccc(O)cc1 (configuration not stated)
T/C (endpoint: median survival time, dose: 3.12 mg/kg/injection, schedule: Q01DX009 (ip), vehicle: Klucel (hydroxypropylcellulose) (HPC), higher = longer survival): 94 % of control
T/C (endpoint: median survival time, dose: 6.25 mg/kg/injection, schedule: Q01DX009 (ip), vehicle: Klucel (hydroxypropylcellulose) (HPC), higher = longer survival): 98 % of control
T/C (endpoint: median survival time, dose: 12.5 mg/kg/injection, schedule: Q01DX009 (ip), vehicle: Klucel (hydroxypropylcellulose) (HPC), higher = longer survival): 100 % of control
T/C (endpoint: median survival time, dose: 25.0 mg/kg/injection, schedule: Q01DX009 (ip), vehicle: Klucel (hydroxypropylcellulose) (HPC), higher = longer survival): 94 % of control

C=C1C(=O)OC2CC(C)C3C4OC4C(O)C3(C)C(O)C12 (configuration not stated)
T/C (endpoint: median survival time, dose: 9.38 mg/kg/injection, schedule: Q01DX009 (ip), vehicle: saline with Tween-80, higher = longer survival): 99 % of control
T/C (endpoint: median survival time, dose: 18.75 mg/kg/injection, schedule: Q01DX009 (ip), vehicle: saline with Tween-80, higher = longer survival): 96 % of control
T/C (endpoint: median survival time, dose: 37.5 mg/kg/injection, schedule: Q01DX009 (ip), vehicle: saline with Tween-80, higher = longer survival): 101 % of control

Cc1ccc(NC(=O)N(CCBr)N=O)cc1
T/C (endpoint: median survival time, dose: 0.5 mg/kg/injection, schedule: Q01DX009 (ip), vehicle: other, higher = longer survival): 101 % of control
T/C (endpoint: median survival time, dose: 1.0 mg/kg/injection, schedule: Q01DX009 (ip), vehicle: other, higher = longer survival): 103 % of control
T/C (endpoint: median survival time, dose: 1.6 mg/kg/injection, schedule: Q01DX009 (ip), vehicle: other, higher = longer survival): 97 % of control
T/C (endpoint: median survival time, dose: 2.0 mg/kg/injection, schedule: Q01DX009 (ip), vehicle: other, higher = longer survival): 106 % of control
T/C (endpoint: median survival time, dose: 4.0 mg/kg/injection, schedule: Q01DX009 (ip), vehicle: other, higher = longer survival): 97 % of control
T/C (endpoint: median survival time, dose: 6.25 mg/kg/injection, schedule: Q01DX009 (ip), vehicle: other, higher = longer survival): 94 % of control and 99 % of control
T/C (endpoint: median survival time, dose: 12.5 mg/kg/injection, schedule: Q01DX009 (ip), vehicle: other, higher = longer survival): 95 % of control
T/C (endpoint: median survival time, dose: 25.0 mg/kg/injection, schedule: Q01DX009 (ip), vehicle: other, higher = longer survival): 96 % of control
T/C (endpoint: median survival time, dose: 50.0 mg/kg/injection, schedule: Q01DX009 (ip), vehicle: other, higher = longer survival): 96 % of control

O=S(=O)(c1ccc(NC(=S)N/N=C/c2ccccc2O)cc1)N1CCCCC1
T/C (endpoint: median survival time, dose: 12.5 mg/kg/injection, schedule: Q01DX009 (ip), vehicle: olive oil, sesame oil, peanut oil, higher = longer survival): 98 % of control
T/C (endpoint: median survival time, dose: 25.0 mg/kg/injection, schedule: Q01DX009 (ip), vehicle: olive oil, sesame oil, peanut oil, higher = longer survival): 90 % of control
T/C (endpoint: median survival time, dose: 50.0 mg/kg/injection, schedule: Q01DX009 (ip), vehicle: olive oil, sesame oil, peanut oil, higher = longer survival): 87 % of control
T/C (endpoint: median survival time, dose: 200.0 mg/kg/injection, schedule: Q01DX009 (ip), vehicle: olive oil, sesame oil, peanut oil, higher = longer survival): 91 % of control
